Where two headings read alike, the source gives them in different places.
Biological target: T1, human cGAS (residues 161-522) (Homo sapiens, UniProt Q8N884)
T1 construct: Recombinantly expressed purified human cGAS (residues 161-522) was used at 25 nM; made in house
Experiment: cGAS Activity Assay—Malachite Green
Format: biochemical
Procedure: Compounds were tested for cGAS inhibition in a coupled enzymatic assay based on Phosphate detection by Malachite Green. Final assay conditions were 20 mM TRIS pH 7.5 (Applichem), 5 mM MgCl2 (Sigma) and 0.01% BSA (Sigma) supplemented with 80 μM ATP (Sigma), 80 μM GTP (Sigma) and 100 nM Interferon Stimulating DNA (ISD) (Microsynth).
1 μL of DMSO dilution series was transferred to 32.3 μL reaction buffer, mixed by pipetting up/down, spun for 1 minute at 3000 rpm and was visually inspected for precipitation. 5 μL of 3-fold enzyme stock solution were transferred to an empty 384-well Black/Clear Flat Bottom Polystyrene NBS (Corning) rows 3-24. Rows 1-2 were filled with assay buffer. Plates were spun 10 seconds at 1000 rpm (164×g). 5 μL of compound intermediate dilution was added and mixed by pipetting up/down to rows 3-24. Rows 1-2 were filled with 3.1% DMSO assay buffer. Plates were spun 10 seconds at 1000 rpm (164×g). 5 μL 3-fold Nucleotide/DNA mix was added to all wells to start the reaction. Plates were spun 10 seconds at 1000 rpm (164×g) and incubated for 4 hour at room temperature (RT) in the dark. 5 μL 4 U/mL PPase (Sigma) were added to all wells. Plates spun 10 seconds at 1000 rpm (164×g). 10 μL BioMol green Solution (Enzo Life Sciences) was added to all wells. Plates spun 10 seconds at 1000 rpm (164×g) and incubated 30 minutes at RT in the dark. Absorbance data was collected 620 nm on an EnVision Multilable Reader (Perkin Elmer) and the following measurement settings were used: excitation filter photometric was 620 nm; excitation from the top; measurement height was 1 mm; number of flashes was 30; number of flashes integrated was 1.
All plates are checked for abnormalities and outliers in the Blank Control (no protein, row 1) and the Neutral Control (no compound, row 2) are excluded using the 3*SD rule.
Table 5 provides IC50 values (μM) for cGAS inhibition obtained for particular examples of the present invention as measured by the above-described assay.

[1] = cGAS inhibition, 25 nM cGAS, 80 μM ATP, 80 μM GTP, 100 nM ISD, 4 hour at RT, Malachite Green phosphate detection, read-out: IC50 cGAS

T1 sequence (Q8N884 161-522): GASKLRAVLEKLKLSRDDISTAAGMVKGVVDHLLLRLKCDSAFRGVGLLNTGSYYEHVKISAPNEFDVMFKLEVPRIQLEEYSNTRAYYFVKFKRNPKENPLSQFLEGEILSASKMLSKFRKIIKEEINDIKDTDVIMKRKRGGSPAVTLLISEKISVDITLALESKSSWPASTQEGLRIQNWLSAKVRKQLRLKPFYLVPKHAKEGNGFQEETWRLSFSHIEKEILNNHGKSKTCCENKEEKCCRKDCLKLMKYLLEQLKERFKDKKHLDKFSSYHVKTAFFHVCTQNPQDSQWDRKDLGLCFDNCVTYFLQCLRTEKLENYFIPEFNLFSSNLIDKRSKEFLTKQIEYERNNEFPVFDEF

| IC50 [1] [nM] | IC50 [nM] | SMILES |
| --- | --- | --- |
| 2200 | – | CCCc1cc(=O)n2nc(NCc3ccc(OCC)cc3)nc2[nH]1 [Example 54, 2-[(4-ethoxyphenyl)methyl-amino]-5-propyl-4H-[1,2,4]-triazolo[1,5-a]pyrimidin-7-one] |
| 2440 | – | CCCc1cc(=O)n2nc(NCc3cc(-c4ccccc4)ccc3Cl)nc2[nH]1 [Example 23, 2-[(2-chloro-5-phenylphenyl)-methylamino]-5-propyl-4H-[1,2,4]triazolo[1,5-a]pyrimidin-7-one] |
| 602 | – | CCCc1cc(=O)n2nc(NCc3cc(-c4ccn(C)n4)ccc3F)nc2[nH]1 [Example 12, 2-[[2-fluoro-5-(1-methylpyrazol-3-yl)phenyl]methylamino]-5-propyl-4H-[1,2,4]triazolo[1,5-a]pyrimidin-7-one] |
| 4010 | – | CCCc1cc(=O)n2nc(NCc3ccc(-n4cccn4)cc3)nc2[nH]1 [Example 5, 5-propyl-2-[(4-pyrazol-1-yl-phenyl)methylamino]-4H-[1,2,4]-triazolo[1,5-a]pyrimidin-7-one] |
| 1570 | – | O=c1cc(CC2CCC2)[nH]c2nc(NCc3ccc(-c4ccccc4)cc3)nn12 [Example 3, 5-(cyclobutylmethyl)-2-[(4-phen-ylphenyl)methylamino]-4H-[1,2,4]triazolo[1,5-a]pyrimidin-7-one] |
| – | 668 | CCCc1cc(=O)n2nc(NCc3cc(-c4ccccn4)ccc3Cl)nc2[nH]1 [Example 29, 2-[[2-chloro-5-(2-pyridyl)phen-yl]methylamino]-5-propyl-4H-[1,2,4]triazolo[1,5-a]pyrimidin-7-one] |
| – | 2700 | CC(C)c1ccc(CNc2nc3[nH]c(Cc4ccccc4)cc(=O)n3n2)cc1 [Example 73, 5-benzyl-2-[(4-isopropylphen-yl)methylamino]-4H-[1,2,4]-triazolo[1,5-a]pyrimidin-7-one] |
| 1040 | – | CCCc1cc(=O)n2nc(NCc3cc(N4CCOCC4)ccc3Cl)nc2[nH]1 [Example 39, 2-[(2-chloro-5-morpholinophen-yl)methylamino]-5-propyl-4H-[1,2,4]triazolo[1,5-a]pyrimidin-7-one] |
| 1150 | – | CCCc1cc(=O)n2nc(NCc3cc(-c4ccn(C)n4)ccc3C#N)nc2[nH]1 [Example 84, 4-(1-methylpyrazol-3-yl)-2-[[(7-oxo-5-propyl-4H-[1,2,4]-triazolo[1,5-a]pyrimidin-2-yl)amino]methyl]benzonitrile] |
| 3000 | – | CCCc1cc(=O)n2nc(NCc3ccc4ncccc4c3)nc2[nH]1 [Example 22, 5-propyl-2-(6-quinolylmethyl-amino)-4H-[1,2,4]triazolo[1,5-a]pyrimidin-7-one] |
| 1590 | – | O=c1cc(CC2CCC2)[nH]c2nc(NCc3ccc(Cl)cc3Cl)nn12 [Example 65] |
| 5160 | – | CCc1cc(=O)n2nc(NCc3ccc(Cl)cc3Cl)nc2[nH]1 [Example 37, 2-[(2,4-dichlorophenyl)methyl-amino]-5-ethyl-4H-[1,2,4]-triazolo[1,5-a]pyrimidin-7-one] |
| 2770 | – | CCCc1cc(=O)n2nc(NCc3cc(-c4cccnn4)ccc3Cl)nc2[nH]1 [Example 85, 2-[(2-Chloro-5-pyridazin-3-yl-phenyl)methylamino]-5-propyl-4H-[1,2,4]triazolo[1,5-a]pyrimidin-7-one] |
| – | 287 | CCCc1cc(=O)n2nc(NCc3cc(-c4ccncc4)ccc3Cl)nc2[nH]1 [Example 25, 2-[[2-chloro-5-(4-pyridyl)phen-yl]methylamino]-5-propyl-4H-[1,2,4]triazolo[1,5-a]pyrimidin-7-one] |
| 2660 | – | CCCc1cc(=O)n2nc(NCc3ccc(OC(C)C)cc3)nc2[nH]1 [Example 53, 2-[(4-propan-2-yloxyphenyl)-methylamino]-5-propyl-4H-[1,2,4]triazolo[1,5-a]pyrimidin-7-one] |
| – | 4040 | CCCc1cc(=O)n2nc(NCc3ccc(Cl)cc3F)nc2[nH]1 [Example 62] |
| 827 | – | O=c1cc(C(F)(F)F)[nH]c2nc(NCc3ccc(-c4ccccc4)cc3)nn12 [Example 75, 2-[(4-phenylphenyl)methyl-amino]-5-(trifluoromethyl)-4H-[1,2,4]triazolo[1,5-a]pyrimidin-7-one] |
| 1490 | – | CCCc1cc(=O)n2nc(NCc3cc(-c4ccn(C)n4)ccn3)nc2[nH]1 [Example 82, 2-[[4-(1-methylpyrazol-3-yl)-2-pyridyl]methylamino]-5-propyl-4H-[1,2,4]triazolo-[1,5-a]pyrimidin-7-one] |
| 4920 | – | CCCc1cc(=O)n2nc(NCc3ccc(-c4ccn(C)n4)cc3)nc2[nH]1 [Example 14, 2-[[4-(1-methylpyrazol-3-yl)-phenyl]methylamino]-5-propyl-4H-[1,2,4]triazolo[1,5-a]-pyrimidin-7-one] |
| 650 | – | CCCc1cc(=O)n2nc(NCc3cc(N4CC(OC)C4)ncc3Cl)nc2[nH]1 [Example 93, 2-[[5-Chloro-2-(3-methoxyazetidin-1-yl)-4-pyridyl]methylamino]-5-propyl-4H-[1,2,4]triazolo[1,5-a]pyrimidin-7-one] |
| – | 533 | CCCc1cc(=O)n2nc(NCc3cc(-c4ccn(C)n4)ccc3Cl)nc2[nH]1 [Example 57, 2-[[2-chloro-5-(1-methylpyrazol-3-yl)phenyl]methylamino]-5-propyl-4H-[1,2,4]triazolo[1,5-a]pyrimidin-7-one] |
| 4380 | – | CCCc1cc(=O)n2nc(NCc3ccc(-c4ncccn4)cc3)nc2[nH]1 [Example 2, 5-propyl-2-[(4-pyrimidin-2-yl-phenyl)methylamino]-4H-[1,2,4]-triazolo[1,5-a]pyrimidin-7-one;] |
| 1250 | – | O=c1cc(C(F)(F)F)[nH]c2nc(NCc3ccc(Cl)cc3Cl)nn12 [Example 60, 2-[(2,4-dichlorophenyl)methyl-amino]-5-(trifluoromethyl)-4H-[1,2,4]triazolo[1,5-a]-pyrimidin-7-one] |
| 2130 | – | CCCc1cc(=O)n2nc(NCc3ccc(N4CCOCC4)cc3)nc2[nH]1 [Example 42, 2-[(4-morpholinophenyl)meth-amino]-5-propyl-4H-[1,2,4]-triazolo[1,5-a]pyrimidin-7-one] |
| 1160 | – | CCCc1cc(=O)n2nc(NCc3cc(N4CCOCC4)ncc3Cl)nc2[nH]1 [Example 96, 2-[(5-Chloro-2-morpholino-4-pyridyl)methylamino]-5-propyl-4H-[1,2,4]triazolo[1,5-a]pyrimidin-7-one] |
| 807 | – | CCCc1cc(=O)n2nc(NCc3cc(NC(=O)c4ccon4)ncc3Cl)nc2[nH]1 [Example 90, N-[5-Chloro-4-[[(7-oxo-5-propyl-4H-[1,2,4]triazolo[1,5-a]pyrimidin-2-yl)amino]methyl]-2-pyridyl]isoxazole-3-carboxamide] |
| 4010 | – | CCCc1cc(=O)n2nc(NCc3ccc(-n4ccnc4)cc3)nc2[nH]1 [Example 9, 2-[(4-imidazol-1-ylphenyl)meth-ylamino]-5-propyl-4H-[1,2,4]-triazolo[1,5-a]pyrimidin-7-one] |
| 492 | – | CCCc1cc(=O)n2nc(NCc3cc(Nc4nccs4)ccc3Cl)nc2[nH]1 [Example 89, 2-[[2-chloro-5-(thiazol-2-ylamino)phenyl]methylamino]-5-propyl-4H-[1,2,4]triazolo[1,5-a]pyrimidin-7-one] |
| 816 | – | CCc1cc(=O)n2nc(NCc3cc(-c4ccn(C)n4)ccc3Cl)nc2[nH]1 [Example 33, 2-[[2-chloro-5-(1-methylpyrazol-3-yl)phenyl]methylamino]-5-ethyl-4H-[1,2,4]triazolo[1,5-a]pyrimidin-7-one] |
